Our source for the target mRNA inhibition values is the OligoGym collection.

Several values for one entry are separate records, joined by “and”; a condition that tells them apart may be missing. Equal entries are not always repeated. HELM strings list units from the 5' end as sugar, base in round brackets, then linkage (d deoxyribose, r ribose, m 2'-O-methyl, p phosphodiester). Methylation of C is not given here. [moe] = 2'-O-(2-methoxyethyl) (MOE); [cEt] = constrained ethyl (cEt); [sp] = phosphorothioate linkage

This data set addresses HBV. To be noted: ASO, HepG2, 0.07 µM.
Consider “RNA1{[moe](A)[sp].[moe](G)[sp].d(A)[sp].d(G)[sp].d(A)[sp].d(A)[sp].d(G)[sp].d(T)[sp].d(C)[sp].d(C)[sp].d(A)[sp].[moe](C)[sp].[moe](C)[sp].[moe](A)[sp].[moe](C)[sp].[moe](G)[sp].[moe](A)}$$$$V2.0”, for which the target mRNA inhibition is 39% and 27%.

As to “RNA1{[moe](C)[sp].[cEt](G)[sp].[cEt](G)[sp].d(G)[sp].d(C)[sp].d(A)[sp].d(A)[sp].d(C)[sp].d(A)[sp].d(T)[sp].d(A)[sp].d(C)[sp].d(C)[sp].[cEt](T)[sp].[cEt](T)[sp].[moe](G)}$$$$V2.0”, the target mRNA inhibition is 61% and 63%.

Take “RNA1{[moe](C)[sp].[moe](G)[sp].d(T)[sp].d(G)[sp].d(C)[sp].d(A)[sp].d(G)[sp].d(A)[sp].d(G)[sp].d(G)[sp].d(T)[sp].[moe](G)[sp].[moe](A)[sp].[moe](A)[sp].[moe](G)[sp].[moe](C)[sp].[moe](G)}$$$$V2.0”: the target mRNA inhibition is 74% and 68%.

With “RNA1{[moe](A)[sp].[moe](C)[sp].[moe](C)[sp].[moe](A)[sp].[moe](A)[sp].[moe](T)[sp].d(T)[sp].d(T)[sp].d(A)[sp].d(T)[sp].d(G)[sp].d(C)[sp].d(C)[sp].d(T)[sp].d(A)[sp].[moe](C)[sp].[moe](A)}$$$$V2.0”, the target mRNA inhibition was 5% and 18%.

“RNA1{[moe](A)[sp].[cEt](C)[sp].d(C)[sp].d(A)[sp].d(C)[sp].d(T)[sp].d(G)[sp].d(A)[sp].d(A)[sp].d(C)[sp].d(A)[sp].d(A)[sp].[cEt](A)[sp].[moe](T)[sp].[cEt](G)[sp].[moe](G)}$$$$V2.0”: the target mRNA inhibition is 75% and 64%.

Turning to “RNA1{[moe](C)[sp].[moe](A)[sp].[moe](C)[sp].d(T)[sp].d(A)[sp].d(G)[sp].d(T)[sp].d(A)[sp].d(A)[sp].d(A)[sp].d(C)[sp].d(T)[sp].[moe](G)[sp].[moe](A)[sp].[moe](G)[sp].[moe](C)[sp].[moe](C)}$$$$V2.0”, the target mRNA inhibition was 54% and 37%.

Regarding “RNA1{[moe](C)[sp].[moe](G)[sp].[moe](G)[sp].d(G)[sp].d(C)[sp].d(A)[sp].d(A)[sp].d(C)[sp].d(A)[sp].d(T)[sp].d(A)[sp].d(C)[sp].[moe](C)[sp].[moe](T)[sp].[moe](T)[sp].[moe](G)}$$$$V2.0”, the target mRNA inhibition was 56% and 45%.

Turning to “RNA1{[moe](G)[sp].[moe](A)[sp].[moe](A)[sp].[moe](C)[sp].d(T)[sp].d(G)[sp].d(G)[sp].d(A)[sp].d(G)[sp].d(C)[sp].d(C)[sp].d(A)[sp].d(C)[sp].[moe](C)[sp].[moe](A)[sp].[moe](G)[sp].[moe](C)}$$$$V2.0”, the target mRNA inhibition was 69% and 49%.

Turning to “RNA1{[moe](G)[sp].[moe](G)[sp].d(T)[sp].d(G)[sp].d(A)[sp].d(A)[sp].d(G)[sp].d(C)[sp].d(G)[sp].d(A)[sp].d(A)[sp].[moe](G)[sp].[moe](T)[sp].[moe](G)[sp].[moe](C)[sp].[moe](A)[sp].[moe](C)}$$$$V2.0”, the target mRNA inhibition is 77% and 71%.

In the case of “RNA1{[moe](C)[sp].[moe](G)[sp].[moe](A)[sp].[moe](A)[sp].[moe](C)[sp].[moe](C)[sp].d(A)[sp].d(C)[sp].d(T)[sp].d(G)[sp].d(A)[sp].d(A)[sp].d(C)[sp].d(A)[sp].d(A)[sp].[moe](A)[sp].[moe](T)}$$$$V2.0”, the target mRNA inhibition was 0% and 20%.

Consider “RNA1{[moe](T)[sp].[moe](A)[sp].[moe](T)[sp].[moe](G)[sp].d(C)[sp].d(C)[sp].d(T)[sp].d(A)[sp].d(C)[sp].d(A)[sp].d(G)[sp].d(C)[sp].d(C)[sp].[moe](T)[sp].[moe](C)[sp].[moe](C)}$$$$V2.0”, for which the target mRNA inhibition was 33% and 42%.

Consider “RNA1{[moe](A)[sp].[cEt](G)[sp].[cEt](A)[sp].d(G)[sp].d(G)[sp].d(T)[sp].d(G)[sp].d(A)[sp].d(A)[sp].d(G)[sp].d(C)[sp].d(G)[sp].d(A)[sp].[cEt](A)[sp].[cEt](G)[sp].[moe](T)}$$$$V2.0”, for which the target mRNA inhibition is 68% and 74%.

Consider “RNA1{[moe](A)[sp].[moe](G)[sp].[moe](G)[sp].d(C)[sp].d(A)[sp].d(T)[sp].d(A)[sp].d(G)[sp].d(C)[sp].d(A)[sp].d(G)[sp].d(C)[sp].[moe](A)[sp].[moe](G)[sp].[moe](G)[sp].[moe](A)[sp].[moe](T)}$$$$V2.0”, for which the target mRNA inhibition is 55% and 53%.

Take “RNA1{[moe](G)[sp].[moe](A)[sp].[moe](G)[sp].[moe](A)[sp].[moe](A)[sp].[moe](G)[sp].d(T)[sp].d(C)[sp].d(C)[sp].d(A)[sp].d(C)[sp].d(C)[sp].d(A)[sp].d(C)[sp].d(G)[sp].[moe](A)[sp].[moe](G)}$$$$V2.0”: the target mRNA inhibition is 27% and 23%.

Regarding “RNA1{[moe](A)[sp].[cEt](G)[sp].d(G)[sp].d(C)[sp].d(A)[sp].d(T)[sp].d(A)[sp].d(G)[sp].d(C)[sp].d(A)[sp].d(G)[sp].d(C)[sp].[cEt](A)[sp].[moe](G)[sp].[cEt](G)[sp].[moe](A)}$$$$V2.0”, the target mRNA inhibition is 66% and 52%.

“RNA1{[moe](T)[sp].[moe](G)[sp].[moe](A)[sp].d(G)[sp].d(G)[sp].d(C)[sp].d(A)[sp].d(T)[sp].d(A)[sp].d(G)[sp].d(C)[sp].d(A)[sp].d(G)[sp].[cEt](C)[sp].[cEt](A)[sp].[cEt](G)}$$$$V2.0”: the target mRNA inhibition was 59% and 61%.

As to “RNA1{[moe](T)[sp].[moe](G)[sp].[moe](A)[sp].[moe](A)[sp].d(G)[sp].d(C)[sp].d(G)[sp].d(A)[sp].d(A)[sp].d(G)[sp].d(T)[sp].d(G)[sp].d(C)[sp].[moe](A)[sp].[moe](C)[sp].[moe](A)}$$$$V2.0”, the target mRNA inhibition was 43% and 52%.

On to “RNA1{[moe](A)[sp].[moe](G)[sp].d(A)[sp].d(G)[sp].d(G)[sp].d(T)[sp].d(G)[sp].d(A)[sp].d(A)[sp].d(G)[sp].d(C)[sp].[moe](G)[sp].[moe](A)[sp].[moe](A)[sp].[moe](G)[sp].[moe](T)}$$$$V2.0”, for which the target mRNA inhibition is 40% and 48%.

For the substance “RNA1{[moe](T)[sp].[moe](T)[sp].[moe](T)[sp].d(A)[sp].d(T)[sp].d(G)[sp].d(C)[sp].d(C)[sp].d(T)[sp].d(A)[sp].d(C)[sp].d(A)[sp].[moe](G)[sp].[moe](C)[sp].[moe](C)[sp].[moe](T)}$$$$V2.0”, the target mRNA inhibition is 51% and 38%.

Turning to “RNA1{[moe](G)[sp].[moe](A)[sp].[moe](G)[sp].d(G)[sp].d(T)[sp].d(G)[sp].d(A)[sp].d(A)[sp].d(G)[sp].d(C)[sp].d(G)[sp].d(A)[sp].[moe](A)[sp].[moe](G)[sp].[moe](T)[sp].[moe](G)[sp].[moe](C)}$$$$V2.0”, the target mRNA inhibition was 81% and 71%.

Regarding “RNA1{[moe](G)[sp].[moe](T)[sp].[moe](G)[sp].d(C)[sp].d(A)[sp].d(G)[sp].d(A)[sp].d(G)[sp].d(G)[sp].d(T)[sp].d(G)[sp].d(A)[sp].d(A)[sp].[cEt](G)[sp].[cEt](C)[sp].[cEt](G)}$$$$V2.0”, the target mRNA inhibition was 78% and 74%.

“RNA1{[moe](C)[sp].[cEt](G)[sp].[cEt](T)[sp].d(G)[sp].d(C)[sp].d(A)[sp].d(G)[sp].d(A)[sp].d(G)[sp].d(G)[sp].d(T)[sp].d(G)[sp].d(A)[sp].[cEt](A)[sp].[cEt](G)[sp].[moe](C)}$$$$V2.0”: the target mRNA inhibition is 68% and 65%.
